Key:
[1] = tested on: myeloperoxidase (MPO) in pulmonary tissues; experiment: Systemic LPS-induced acute lung injury model, lung MPO activity; assay type: in vivo, ICR mice
Protocol: ICR mice (25-30 g in body weight; MJ Ltd.) were intraperitoneally injected with LPS (induced from E. coli 055:B5) in an amount of 1 mg/kg thereby inducing Sepsis.
The activity of myeloperoxidase (MPO), an indicator of neutrophils, in pulmonary tissues was determined according to the methods of Goldblum et al (J. Appl. physiol. 59: 1978, 1985) and Parey et al (J. Immunol. 160:1007, 1998). First, mice were sacrificed and pulmonary tissues were obtained therefrom. The tissues had been homogenized in potassium phosphate buffer, and centrifuged to obtain pellets. These pellets were sonicated in potassium phosphate buffer containing 0.5% hexadecyltrimethylammonium bromide (HTAB), and incubated at 60° C. for 120 min. After centrifugation, supernatants were obtained. […] Accordingly, the absorbance of the mixture was determined at a wavelength of 460 nm. […]
ICR mice in LPS-induced septicemia model according to Reference Example <1-1> b) were divided into five groups of 7 mice (Sham group, an experimental group-1, an experimental group-2, an experimental group-3 and a control group). […] At 24 hours after LPS had been administered, the activity of MPO, an indicator of neutrophils, in the pulmonary tissues of the mice of each group, was determined as described in Reference Example 2.

[2] = tested on: monocytes (human PBMC); experiment: IL-8 release induced by LPS in monocytes (ELISA); assay type: cell-based; conditions: 15 μM and 30 μM, 1 hour before 1 μg/ml LPS, supernatant after 3 hours
Protocol: Peripheral bloods were collected from a healthy person, put into a heparinized tube and then well mixed with 1× PBS buffer. Then, they were layered in Ficoll-Hypaque solution (density 1.077, Sigma Chemical Co., USA) and then centrifuged at 2500 rpm at 4° C. for 25 min. After the monocyte layer between Ficoll layer and plasma layer had been cautiously recovered, 1×PBS buffer was added thereto and mixed well. It was then centrifuged again at 2500 rpm at 4° C. for 25 min. Such centrifugation procedures were repeated twice until red blood cells were depleted. Thereafter, the pellet was cultured in FBS at 37° C. for 15 min and centrifuged at 2500 rpm for 10 min. Then, 1×PBS buffer was added again to the pellet. The isolated cells were layered in percoll solution (density 1.066) and then centrifuged at 2500 rpm at 4° C. for 30 min. After only monocyte layer had been recovered from the isolated layers, 1×PBS buffer was added thereto. They were centrifuged at 2500 rpm for 15 min. […]
The neutrophils and monocytes isolated in Examples <2-1> and <2-2> above were cultured in a 96-well plate to which RPMI1640 medium containing 10% FBS was added, at a concentration of 1×10^5 cells/well/0.2 ml, respectively. […] Then, the level of IL-8 was measured using ELISA kit (Biosource, USA).

[3] = tested on: CLP-induced Sepsis model; experiment: CLP-induced sepsis model; assay type: in vivo, ICR mice
Protocol: After ICR mice (25-30 g in body weight; MJ Ltd.) had been anesthetized with pentobarbital, right abdominal sites of the mice were dissected in a length of 1 cm to expose their cecum, and sites below the ileocecal valve were ligated. And then, after 4˜6 punctures had been created on the cecum with 21-gauge needle, the abdomen was sutured again to cause peritonitis, thereby inducing Sepsis.
After the peritoneal cavity of mice had been exposed, it was washed with sterilized saline (2 ml). The resultant solution was diluted with HBSS (Sigma Chemical Co., USA) in a ratio of 1/1000, and then 10 μl of each diluted solution was spread on Trypticase Soy agar (BBL, Becton Dickinson Co., USA) plates. After overnight incubation at 37° C., colony forming unit (CFU) was measured.
7 mice were administered with 1-stearoyl LPC (Sigma Chemical Co., USA) dissolved in 1% BSA solution containing no fatty acid in an amount of 10 mg/kg by subcutaneous injection 2 and 14 hours after the CLP surgery, respectively (experimental group). The remaining 7 mice were administered with 1% BSA solution containing no fatty acid of the same amount as above in the same manner (control group). The numbers of intraperitoneal E. coli cells in the ICR mice of experimental and control groups were measured in accordance with Reference Example 3, 24 hours after the CLP surgery.
Each 10 ICR mice were intraperitoneally administered with 1-stearoyl LPC (Sigma Chemical Co., USA) dissolved in 1% BSA solution containing no fatty acid in amounts of 5, 10, and 20 mg/kg, respectively, four times at intervals of 12 hours, 2 hours after the CLP surgery (experimental group-1, -2 and -3). The remaining 10 ICR mice were administered only with 1% BSA solution containing no fatty acid (control group). And then, the survival rates of mice in experimental- and control groups were investigated over the lapse of time.
10 mice for the experimental group were intraperitoneally administered with 1-stearoyl LPC (Sigma Chemical Co., USA) dissolved in 1% BSA solution containing no fatty acid in an amount of 10 mg/kg, four times at intervals of 12 hours, 10 hours after the CLP surgery. The remaining 10 mice for the control group were administered only with 1% BSA solution containing no fatty acid. Thereafter, the survival rates of ICR mice in experimental- and control groups were investigated over the lapse of time.
CLP-induced Sepsis model mice were subcutaneously injected with SPC, instead of 1-stearoyl LPC, in dosages of 3 mg/kg and 30 mg/kg four times at intervals of 12 hours, 2 hours after the CLP surgery, respectively. The survival rates of mice were investigated.

CCCCCCCCCCCCCCCCCC(=O)OCC(O)COP(=O)([O-])OCC[N+](C)(C)C (stereo not drawn) [1-stearoyl LPC, 1-stearoyl (18:0) lysophosphatidylcholine]
activity of MPO in pulmonary tissues ([1]; 20 mg/kg subcutaneous (experimental group-3), p<0.01): the most excellent effects | activity of MPO in pulmonary tissues ([1]; 5, 10 and 20 mg/kg subcutaneous, 2 and 14 hours after intraperitoneal LPS 1 mg/kg, 24 hours after LPS, vs control group): suppressed in a concentration-dependent manner | level of IL-8 release that had been increased by LPS in monocytes [2]: inhibited by LPC in a concentration-dependent manner | therapeutic effect (survival rate) when septicemia already developed ([3]; 10 mg/kg intraperitoneal, four times at intervals of 12 hours, starting 10 hours after CLP surgery): excellent therapeutic effect | number of intraperitoneal E. coli cells ([3]; 10 mg/kg subcutaneous, 2 and 14 hours after CLP surgery, 24 hours after surgery, P<0.01): remarkably decreased | survival rate ([3]; 5, 10 and 20 mg/kg intraperitoneal, four times at intervals of 12 hours, starting 2 hours after CLP surgery): much higher than that of the mice in control group
